Source: patent publication US20140142055A1, “METHODS OF TREATING RECURRENT MEIBOMIAN GLANDS DISORDER AND THEREBY DECREASING THE FREQUENCY OF RECURRENCE” (INSITE VISION CORPORATION, priority 2011, published 2014)

Experiment: Release of fluorometholone from the gelled aqueous polymer suspension in the rabbit eye, measured in the aqueous humor
Format: in vivo
Conditions: topical sustained-release aqueous suspension of lightly cross-linked carboxyl-containing polymer
Experimental: The viscous gels that result from fluid eye drops delivered by means of the aqueous suspensions have residence times in the eye ranging from about 2 to about 12 hours, e.g., from about 3 to about 6 hours. The active ingredients contained in these ophthalmically acceptable vehicles can be released from the gels at rates that depend on such factors as the active ingredient itself and its physical form, the extent of drug loading and the pH of the system, as well as on any drug delivery adjuvants, such as ion exchange resins compatible with the ocular surface, which can also be present.

Compound: CC(=O)[C@@]1(O)CC[C@H]2[C@@H]3C[C@H](C)C4=CC(=O)C=C[C@]4(C)[C@@]3(F)[C@@H](O)C[C@@]21C [fluorometholone]
- release rates in the rabbit eye, as measured by fluorometholone contained in the aqueous humor: in excess of four hours
